Experiments:
Test in all cases: relative viability (nuclei count vs DMSO), 5 days (fraction); higher = more cells survive
Zebularine + Tozasertib = compound: O=c1ncccn1[C@@H]1O[C@H](CO)[C@@H](O)[C@H]1O [Zebularine] + Cc1cc(Nc2cc(N3CCN(C)CC3)nc(Sc3ccc(NC(=O)C4CC4)cc3)n2)n[nH]1 [Tozasertib] (partner 0.1 µM)
Procedure, shortened: (§1)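 Dosing by pin tool came one day after lung cancer cell lines were seeded in 1536-well plates, using either one drug or a fixed anchor-drug dose plus five library-drug doses (not always all listed) in √10 steps. After 5 days, nuclei were counted on 4× images. Relative viability is treated-well nuclei count divided by vehicle-well nuclei count, and values are medians of duplicate plates.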

Zebularine + Olaparib = compound: O=c1ncccn1[C@@H]1O[C@H](CO)[C@@H](O)[C@H]1O [Zebularine] + O=C(c1cc(Cc2n[nH]c(=O)c3ccccc23)ccc1F)N1CCN(C(=O)C2CC2)CC1 [Olaparib] (partner 8 µM)
Procedure, shortened: as §1

Zebularine + Luminespib = compound: O=c1ncccn1[C@@H]1O[C@H](CO)[C@@H](O)[C@H]1O [Zebularine] + CCNC(=O)c1noc(-c2cc(C(C)C)c(O)cc2O)c1-c1ccc(CN2CCOCC2)cc1 [Luminespib] (partner 0.01 µM)
Procedure, shortened: as §1

BI-D1870 + Vorinostat = compound: CC(C)CCN1c2nc(Nc3cc(F)c(O)c(F)c3)ncc2N(C)C(=O)C1C [BI-D1870] + O=C(CCCCCCC(=O)Nc1ccccc1)NO [Vorinostat] (partner 1 µM)
Procedure, shortened: as §1

Row | Cell Line | relative viability (Zebularine + Tozasertib; first compound 1 µM) | relative viability (Zebularine + Tozasertib; first compound 3.162 µM) | relative viability (Zebularine + Tozasertib; first compound 10 µM) | relative viability (Zebularine + Tozasertib; first compound 31.62 µM) | relative viability (Zebularine + Tozasertib; first compound 100 µM) | relative viability (Zebularine + Olaparib; first compound 1 µM) | relative viability (Zebularine + Olaparib; first compound 3.162 µM) | relative viability (Zebularine + Olaparib; first compound 10 µM) | relative viability (Zebularine + Olaparib; first compound 31.62 µM) | relative viability (Zebularine + Olaparib; first compound 100 µM) | relative viability (Zebularine + Luminespib; first compound 1 µM) | relative viability (Zebularine + Luminespib; first compound 3.162 µM) | relative viability (Zebularine + Luminespib; first compound 10 µM) | relative viability (Zebularine + Luminespib; first compound 31.62 µM) | relative viability (Zebularine + Luminespib; first compound 100 µM) | relative viability (BI-D1870 + Vorinostat; first compound 0.04 µM) | relative viability (BI-D1870 + Vorinostat; first compound 0.1265 µM) | relative viability (BI-D1870 + Vorinostat; first compound 0.4 µM) | relative viability (BI-D1870 + Vorinostat; first compound 1.265 µM) | relative viability (BI-D1870 + Vorinostat; first compound 4 µM)
1 | NCI-H1650 | 0.509 | 0.308 | 0.325 | 0.361 | 0.341 | 0.731 | 0.642 | 0.634 | 0.912 | 0.39 | 0.188 | 0.222 | 0.176 | 0.234 | 0.225 | 0.613 | 0.425 | 0.646 | 0.595 | 0.577
2 | BEN | 0.612 | 0.563 | 0.379 | 0.354 | 0.43 | 0.819 | 0.623 | 0.608 | 0.428 | 0.506 | 0.448 | 0.172 | 0.235 | 0.262 | 0.178 | 0.538 | 0.504 | 0.595 | 0.628 | 0.534
3 | EMC-BAC-2 | 0.326 | 0.313 | 0.266 | 0.28 | 0.313 | 0.559 | 0.477 | 0.364 | 0.526 | 0.488 | 1.27 | 1.1 | 0.842 | 1.38 | 1.35 | 0.495 | 0.519 | 0.397 | 0.461 | 0.413
4 | LU99A | 0.296 | 0.276 | 0.239 | 0.261 | 0.159 | 0.306 | 0.243 | 0.245 | 0.182 | 0.135 | 0.221 | 0.269 | 0.166 | 0.188 | 0.146 | 0.584 | 0.422 | 0.412 | 0.428 | 0.345
5 | ABC-1 | 0.193 | 0.196 | 0.164 | 0.189 | 0.148 | 0.782 | 0.696 | 0.666 | 0.702 | 0.522 | 0.476 | – | 0.458 | 0.317 | 0.364 | 1.2 | 1.01 | 1.07 | 1.2 | 0.535
6 | NCI-H2170 | 0.815 | 0.708 | 0.655 | 0.636 | 0.285 | 0.707 | 0.561 | 0.414 | 0.364 | 0.166 | 1.07 | 0.942 | 0.223 | 0.689 | 0.272 | 1.01 | 0.786 | 0.786 | 0.783 | 0.675
7 | NCI-H1299 | – | – | – | – | – | 1.06 | 0.893 | 0.852 | 0.805 | 0.447 | – | – | – | – | – | – | – | – | – | –
8 | EBC-1 | – | – | – | – | – | 0.833 | 0.731 | 0.584 | 0.547 | 0.359 | – | – | – | – | – | – | – | – | – | –
9 | NCI-H2347 | 0.632 | 0.482 | 0.51 | 0.405 | 0.309 | 0.565 | 0.566 | 0.531 | 0.385 | 0.358 | 0.504 | 0.418 | 0.293 | 0.213 | 0.28 | 0.524 | 0.677 | 0.597 | 0.776 | 0.545
10 | NCI-H1993 | 0.593 | 0.582 | 0.53 | 0.614 | 0.573 | 1.09 | 0.885 | 0.416 | 0.982 | 0.693 | 0.908 | 0.687 | 0.749 | 0.815 | 0.847 | 0.763 | 0.689 | 0.767 | 1.1 | 0.631
11 | NCI-H322M | 0.494 | 0.486 | 0.372 | 0.47 | 0.465 | 0.544 | 0.673 | 0.597 | 0.581 | 0.555 | 0.905 | 0.992 | 0.707 | 0.703 | 0.662 | 0.919 | 0.879 | 0.76 | 0.781 | 0.769
12 | NCI-H838 | 0.251 | 0.304 | 0.239 | 0.216 | 0.163 | 0.856 | 0.798 | 0.546 | 0.38 | 0.266 | 0.299 | 0.312 | 0.276 | 0.243 | 0.228 | 0.719 | 0.643 | 0.682 | 0.68 | 0.558
13 | HARA | 0.105 | – | – | 0.0886 | 0.0769 | 0.901 | 0.491 | 0.926 | 0.647 | 0.437 | 0.86 | – | – | 0.833 | 0.445 | 0.542 | 0.405 | 0.641 | 0.614 | 0.495
14 | NCI-H2087 | 0.255 | 0.338 | 0.215 | 0.225 | 0.155 | 0.607 | 0.478 | 0.323 | 0.34 | 0.239 | 0.19 | 0.17 | 0.143 | 0.176 | 0.141 | 0.634 | 0.595 | 0.96 | 0.92 | 0.849
15 | NCI-H1648 | 0.551 | 0.418 | 0.407 | 0.342 | 0.379 | 0.588 | 0.852 | 0.643 | 0.7 | 0.471 | – | – | – | – | – | 0.345 | 0.333 | – | 0.626 | 0.697
16 | NCI-H1792 | – | – | – | – | – | 0.228 | 0.131 | 0.204 | 0.171 | 0.182 | 0.667 | 0.4 | 0.286 | 0.266 | 0.254 | – | – | – | – | –
17 | A549 | – | – | – | – | – | 0.475 | 0.165 | 0.163 | 0.156 | 0.0971 | – | – | – | – | – | – | – | – | – | –
18 | NCI-H1563 | – | – | – | – | – | – | – | – | – | – | 0.519 | 0.517 | 0.518 | 0.521 | 0.514 | – | – | – | – | –
19 | HCC-78 | 0.423 | 0.429 | 0.219 | 0.278 | 0.259 | 0.76 | 0.652 | – | 0.444 | 0.291 | – | – | – | – | – | 0.438 | 0.408 | 0.392 | 0.497 | 0.381
20 | IA-LM | – | – | – | – | – | 0.889 | 0.828 | – | 1.04 | 0.401 | – | – | – | – | – | 1.02 | 0.927 | 0.913 | 1.08 | 0.874
21 | NCI-H1703 | – | – | – | – | – | 0.468 | 0.552 | 0.339 | 0.395 | 0.321 | – | – | – | – | – | – | – | – | – | –
